Measured values: patent US12612410B2 (CHILDREN'S HOSPITAL MEDICAL CENTER, priority 2020, dated 2026)

The compounds below were run against T1, FLT3 ITD (Homo sapiens, UniProt P36888) (assay: DiscoverX KINOMEscan competition binding, FLT3 ITD).
T1 construct: fused on or other part: DNA tag for qPCR detection (T7 phage fusion or DNA-tagged protein from HEK-293 cells)
T1 sequence (P36888 1-993): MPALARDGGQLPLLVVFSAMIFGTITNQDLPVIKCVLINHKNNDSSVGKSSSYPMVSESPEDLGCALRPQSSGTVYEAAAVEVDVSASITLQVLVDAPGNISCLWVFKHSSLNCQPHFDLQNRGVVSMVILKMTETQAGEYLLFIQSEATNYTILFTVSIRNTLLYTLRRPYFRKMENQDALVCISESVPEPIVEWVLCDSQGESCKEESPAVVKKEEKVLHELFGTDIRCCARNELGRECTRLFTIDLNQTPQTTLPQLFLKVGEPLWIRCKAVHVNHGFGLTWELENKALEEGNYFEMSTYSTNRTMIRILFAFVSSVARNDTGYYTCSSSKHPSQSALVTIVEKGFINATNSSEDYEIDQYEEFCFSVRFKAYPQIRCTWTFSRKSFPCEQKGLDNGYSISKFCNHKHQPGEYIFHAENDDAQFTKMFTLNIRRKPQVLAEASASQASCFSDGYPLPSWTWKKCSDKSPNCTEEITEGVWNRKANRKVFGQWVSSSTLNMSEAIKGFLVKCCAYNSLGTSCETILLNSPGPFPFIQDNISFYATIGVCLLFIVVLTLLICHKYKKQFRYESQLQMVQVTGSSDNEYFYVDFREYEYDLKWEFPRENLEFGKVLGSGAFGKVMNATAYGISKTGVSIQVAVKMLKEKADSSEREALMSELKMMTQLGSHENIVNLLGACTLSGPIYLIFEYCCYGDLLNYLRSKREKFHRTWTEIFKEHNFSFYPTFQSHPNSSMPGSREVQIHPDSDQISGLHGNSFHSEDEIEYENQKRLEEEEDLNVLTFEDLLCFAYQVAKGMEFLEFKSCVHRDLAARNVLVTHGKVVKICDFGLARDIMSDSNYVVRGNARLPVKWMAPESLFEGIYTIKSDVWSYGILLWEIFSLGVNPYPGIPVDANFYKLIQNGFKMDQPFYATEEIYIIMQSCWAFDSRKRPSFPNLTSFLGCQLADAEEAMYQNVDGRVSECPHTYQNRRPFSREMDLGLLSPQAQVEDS
Text: Kinase binding data were obtained for various exemplary compounds prepared according to Examples 1-24 using the DiscoverX KINOMVIEscan® active site-directed competition binding site-directed assay protocol described below. […] As a result, the data report thermodynamic interaction affinities (Kd values), rather than IC50 values that are dependent on ATP concentrations. The assay uses a DNA-tagged version of the protein kinase, and an immobilized ligand bound to a solid support. Compounds that directly or indirectly prevent kinase binding to the immobilized ligand reduce the amount of kinase captured on the solid support, which is detected using an ultra-sensitive qPCR method. Affinity constants reported from the assay have been reported to be independent of the immobilized ligand used that is coupled to the solid support (See supplemental information in Fabian, M. A. et. al., (2005) Nat. Biotechnol. 23, 329-336; Wodicka, L. M. et. al., (2010) Chem. Biol. 17, 1241-1249.)
Kinase-tagged T7 phage strains were prepared in an E. coli host derived from the BL21 strain. E. coli were grown to log-phase and infected with T7 phage and incubated with shaking at 32° C. until lysis. The lysates were centrifuged and filtered to remove cell debris. The remaining kinases were produced in HEK-293 cells and subsequently tagged with DNA for qPCR detection. Streptavidin-coated magnetic beads were treated with biotinylated small molecule ligands for 30 minutes at room temperature to generate affinity resins for kinase assays. The liganded beads were blocked with excess biotin and washed with blocking buffer (SeaBlock (Pierce), 1% BSA, 0.05% Tween 20, 1 mM DTT) to remove unbound ligand and to reduce non-specific binding. Binding reactions were assembled by combining kinases, liganded affinity beads, and test compounds in 1× binding buffer (20% SeaBlock, 0.17×PBS, 0.05% Tween 20, 6 mM DTT). Test compounds were prepared as 111× stocks in 100% DMSO. Kds were determined using an 11-point 3-fold compound dilution series with three DMSO control points. All compounds for Kd measurements are distributed by acoustic transfer (non-contact dispensing) in 100% DMSO. The compounds were then diluted directly into the assays such that the final concentration of DMSO was 0.9%. All reactions were performed in polypropylene 384-well plates. Each was a final volume of 0.02 mL. The assay plates were incubated at room temperature with shaking for 1 hour and the affinity beads were washed with wash buffer (1×PBS, 0.05% Tween 20). The beads were then re-suspended in elution buffer (1×PBS, 0.05% Tween 20, 0.5 μM nonbiotinylated affinity ligand) and incubated at room temperature with shaking for 30 minutes. The kinase concentration in the eluates was measured by qPCR.
Binding constants (Kds) were calculated with a standard dose-response curve using the Hill equation. The Hill Slope was set to −1. Curves were fitted using a non-linear least square fit with the Levenberg-Marquardt algorithm.

Kd [nM]	Compound
0.087	CC1(c2cn3c(-c4cccc(N[C@H]5CNC[C@@H]5F)n4)cnc3cn2)CC1 [Compound 1, N-((3S,4S)-4-fluoropyrrolidin-3-yl)-6-(6-(1-methylcyclopropyl)imidazo[1,2-a]pyrazin-3-yl)pyridin-2-amine]
0.14	CC1(c2cn3c(-c4cccc(N[C@@H]5CCNC5)n4)cnc3cn2)CC1 [Compound 3, (R)-6-(6-(1-methylcyclopropyl)imidazo[1,2-a]pyrazin-3-yl)-N-(pyrrolidin-3-yl)pyridin-2-amine]
0.11	CC1(c2cn3c(-c4cccc(N[C@H]5CNCC56CC6)n4)cnc3cn2)CC1 [Compound 5, (R)-N-(6-(6-(1-methylcyclopropyl)imidazo[1,2-a]pyrazin-3-yl)pyridin-2-yl)-5-azaspiro[2.4]heptan-7-amine]
1.4	FC(F)(F)C1(c2cn3c(-c4cccc(N[C@@H]5CCNC5)n4)cnc3cn2)CC1 [Compound 10, (R)-N-(pyrrolidin-3-yl)-6-(6-(1-(trifluoromethyl)cyclopropyl)imidazo[1,2-a]pyrazin-3-yl)pyridin-2-amine]
0.14	FC(F)c1cn2c(-c3cccc(N[C@H]4CNC[C@@H]4F)n3)cnc2cn1 [Compound 16, 6-(6-(difluoromethyl)imidazo[1,2-a]pyrazin-3-yl)-N-((3S,4S)-4-fluoropyrrolidin-3-yl)pyridin-2-amine]
0.34	FC(F)c1cn2c(-c3cccc(N[C@H]4CNCC[C@@H]4F)n3)cnc2cn1 [Compound 25, 6-(6-(difluoromethyl)imidazo[1,2-a]pyrazin-3-yl)-N-((3S,4S)-4-fluoropiperidin-3-yl)pyridin-2-amine]
2.9	CC(C)(O)c1cn2c(-c3cccc(N[C@@H]4CCCNC4)n3)cnc2cn1 [Compound 30, (R)-2-(3-(6-(piperidin-3-ylamino)pyridin-2-yl)imidazo[1,2-a]pyrazin-6-yl)propan-2-ol]
1.5	CC(C)(O)c1cn2c(-c3cccc(N[C@H]4CNCC[C@@H]4F)n3)cnc2cn1 [Compound 31, 2-(3-(6-(((3S,4S)-4-fluoropiperidin-3-yl)amino)pyridin-2-yl)imidazo[1,2-a]pyrazin-6-yl)propan-2-ol]
2.3	FC(F)(F)COc1cn2c(-c3cccc(N[C@@H]4CCNC4)n3)cnc2cn1 [Compound 38, (R)-N-(pyrrolidin-3-yl)-6-(6-(2,2,2-trifluoroethoxy)imidazo[1,2-a]pyrazin-3-yl)pyridin-2-amine]
0.091	F[C@H]1CNC[C@@H]1Nc1cccc(-c2cnc3cnc(C4CC4)cn23)n1 [Compound 50, 6-(6-cyclopropylimidazo[1,2-a]pyrazin-3-yl)-N-((3S,4S)-4-fluoropyrrolidin-3-yl)pyridin-2-amine]
0.13	Cn1cc(-c2cn3c(-c4cccc(N[C@H]5CNC[C@@H]5F)n4)cnc3cn2)cn1 [Compound 52, N-((3S,4S)-4-fluoropyrrolidin-3-yl)-6-(6-(1-methyl-1H-pyrazol-4-yl)imidazo[1,2-a]pyrazin-3-yl)pyridin-2-amine]
